Legend:
[1] = test system: alpha-synuclein ubiquitination; assay: Alpha-synuclein ubiquitination in TgA53T mice (IP/WB, co-localization immunostaining); type: in vivo, mouse
Description: Male and female TgA53T mice (15 months old) were treated daily with intraperitoneal injection of DMSO versus 10 mg/kg or 40 mg/kg BK50118-C for 7 days. […] ELISA measurement of alpha-synuclein in the same extracts (Figure 4C) confirmed that human alpha-synuclein was reduced by about 30% (10 mg/kg) and 56% (40 mg/kg), respectively (Figure 4C).
(§1) To ascertain the mechanistic effects of BK50118-C on alpha-synuclein clearance, we performed immunostaining in striatum of TgA53T mice. […] We also performed the staining of tyrosine hydroxylase (TH) in the striatum of TgA53T mice. TH is the enzyme responsible for catalyzing the rate limiting step in synthesis of L-3,4-dihydroxyphenylalanine(L-DOPA) which is a precursor for dopamine (DA). Staining of TH will help to evaluate the status of DA producing neurons in the SN and their terminals in the striatum.
(§2) BK50118-C is one of novel small molecule inhibitors of USP13 synthesized in our laboratory. For BK50118-C treatment, approximately 15 months old (±1 month) male and female TgA53T mice were treated with intraperitoneal injection of vehicle (DMSO) or BK50118-C at the daily dosage of 10 mg/Kg or 40 mg/Kg for 7 days. […]
Mouse brain tissues were homogenized in 1x STEN buffer, and the soluble fraction was isolated as indicated above. […] The supernatant was recovered and quantified by protein assay, and a total of 300 µg protein was incubated overnight at 4 °C with primary anti-alpha-synuclein (1:200, Thermofisher, AHB0261) mouse antibodies or anti-ubiquitin (1:100) (Thermo Fisher, PA3–16717, Rockford, IL, USA) antibodies in the presence of sepharose G and an IgG control with primary antibodies. […]
(§3) Immunohistochemistry was performed on the 20 µm thick brain sections for evaluation of ubiquitination of alpha-synuclein. […] The optic densitometry of co-localization of ubiquitin with alpha-synuclein was measured using Image J. Tyrosine hydroxylase (TH) is the limiting enzyme in DA synthesis, so probing for TH+ neurons will help to evaluate the status of DA producing neurons in the SN and their terminals in the striatum. […]

[2] = test system: SH-SY5Y human neuroblastoma cells; assay: LDH and MTT cell viability assays; type: cell-based; conditions: 5 h, compared to DMSO or untreated controls
Description: BK50118-B and BK50118-C (Figure 2C,D) decreased cell viability near and above 100 μM compared to DMSO or untreated controls. CL3-499 (Figure 2G) decreased cell viability near and above 1 mM compared to DMSO or untreated controls.
SH-SY5Y cells were transiently transfected for 24 h with human wild-type α-synuclein using Fugene HD transfection reagent (Promega, E2311, Madison, WI, USA) according to manufacturer’s protocol. Cells were treated with 1 mM, 0.1 mM, 0.01 mM, 1 µM, 0.1 µM, 0.01 µM and 0.001 µM of each novel compounds (BK50118-A, BK50118-B, BK50118-C, CL3-499, CL3-512 and CL3-514) dissolved in DMSO for 5 h. Cells were then harvested on ice by removing culture medium and adding 0.2 mL 1x sodium-tris, EDTA, NP-40 (STEN) buffer (50 mM Tris (pH 7.6), 150 mM NaCl, 2 mM EDTA, 0.2 % NP-40, 0.2 % with Halt protease and phosphatase inhibitor solution (ThermoFisher, 78446). Cells were detached with a cell scraper and collected into centrifuge tubes and incubated at 4 °C for 30 min with agitation. Samples were stored at −80 °C and used for ELISA analyses. For cell viability assay, SHSY-5Y cells stably expressing human wild-type alpha-synuclein were treated with 1 mM, 0.1 mM, 0.01 mM, 1 µM, 0.1 µM, 0.01 µM and 0.001 µM of each novel compound (BK50118-A, BK50118-B, BK50118-C, CL3-499, CL3-512 and CL3-514) dissolved in DMSO for 5 h. Cell viability was determined via lactate dehydrogenase assay on culture media (Thermofisher, 88954) and MTT assay on plated cells (Thermofisher, V13154).

[3] = test system: tyrosine hydroxylase (TH); assay: Tyrosine hydroxylase staining in striatum of TgA53T mice; type: in vivo, mouse; conditions: 40 mg/Kg I.P. daily for 7 days, vs DMSO
Description: as §1
as §2, with “days. Animals were age and sex-matched in their respective treatment cohorts. All animals were sacrificed after treatment.” for “days.”
as §3

ptau396 = assay: p-Tau ser396 ELISA in TgA53T mice; type: in vivo, mouse; conditions: 10 mg/Kg or 40 mg/Kg I.P. daily for 7 days
Description: Therefore, we also measured tau levels. There was no effect on murine tau levels (Figure 4D).
BK50118-C is one of novel small molecule inhibitors of USP13 synthesized in our laboratory. For BK50118-C treatment, approximately 15 months old (±1 month) male and female TgA53T mice were treated with intraperitoneal injection of vehicle (DMSO) or BK50118-C at the daily dosage of 10 mg/Kg or 40 mg/Kg for 7 days. Animals were age and sex-matched in their respective treatment cohorts. All animals were sacrificed after treatment. All experiments were conducted in full compliance with the recommendations of Georgetown University Animal Care and Use Committee. These experiments were conducted under animal protocol No. 2016-1194 titled, Misfolded Protein Clearance in Neurodegeneration, which was approved by the Georgetown University IACUC. Protocol Information: IACUC Protocol Number: 2016-1194. Protocol Approval Date: 14 September 2020 Expiration Date: 14 September 2023.
The ELISA for USP13 (MyBioSource, Cat # MBS9335287, San Diego, CA, USA), Human alpha-synuclein (Biolegend, Cat # 844101, San Diego, CA, USA) and specific p-Tau ser396 (Invitrogen, KHB7031, Waltham, MA, USA) were performed on cell or brain tissue extracts as described above according to manufacturers’ protocol.

[4] = midbrain extracts, 40 mg/kg vs DMSO and 10 mg/kg, 7 days

## Fc1ccc2nccc(OCc3ccccc3)c2c1 [BK50118-C, 4-benzyloxy-6-fluoroquinoline]
[1]; [4]
  ubiquitination after immunoprecipitation of alpha-synuclein followed by ubiquitin WB: increased ubiquitination
  ubiquitination of alpha-synuclein after immunoprecipitation of ubiquitin followed by alpha-synuclein WB: increased ubiquitination of alpha-synuclein
[1]; striatum, 40 mg/Kg I.P. daily for 7 days, vs DMSO
  increase in alpha-synuclein-ubiquitin co-localization (optic density): 130%
[2]
  concentration near and above which cell viability decreased: ≥ 100 µM
[3]
  tyrosine hydroxylase (TH) staining: did not show any noticeable effects
ptau396
  effect on murine tau levels (ptau396 ELISA): no effect

Reference: publication PMC8467576, “Novel Ubiquitin Specific Protease-13 Inhibitors Alleviate Neurodegenerative Pathology” (Metabolites, 2021)
